Experimental data taken from article PMC10644342, “Improved Antibacterial Activity of 1,3,4-Oxadiazole-Based Compounds That Restrict Staphylococcus aureus Growth Independent of LtaS Function” (ACS Infectious Diseases, 2023).
Peptide text beside a SMILES is read from it. * marks the point of attachment. βNA = c1ccc2cc(N*)ccc2c1

Experiments:
[1] = test system: E. coli strain K12; assay: Growth inhibition in combination with PAβN; format: cell-based, Escherichia coli; conditions: PAβN alone up to 100 μg/mL
Method: Phenylalanine-arginine β-naphthylamide (PAβN) is a well-studied efflux pump inhibitor, which can also permeabilize the outer membrane of Gram-negative organisms.[40] […] Without the addition of PAβN (0 μg/mL), neither 1771 nor 13 had any growth inhibitory activity at concentrations up to 64 μg/mL. With the addition of 25 μg/mL of PAβN, the E. coli strain K12 could still grow in the presence of 64 μg/mL of 1771 or 13; however, the growth rate was severely impacted in a dose-dependent manner. […] To further evaluate the Gram-negative coverage of 1771 and 13, we also tested 1771 or 13 in combination with PAβN against Pseudomonas aeruginosa strain PAO1, Klebsiella pneumoniae strain 699 (clinical isolate), and Acinetobacter baumannii strain DF1000 (clinical isolate) (Figure S6a–c).
Figure 8 Permeabilization of the outer membrane renders E. coli susceptible to 1771 and 13. Bacterial growth curves of (a) 1771 and (b) 13 (0–64 μg/mL) in combination with 0, 25, 50, and 100 μg/mL of PAβN. The bacterial growth (OD600nm) was plotted against time following 18 h of growth at 37 °C. The icons represent the mean of three biological replicates.

[2] = test system: LTA; assay: LTA quantification by Western blot; format: cell-based, Staphylococcus aureus; conditions: strain LAC, 1× and 4× the MIC
Method: Overnight cultures of S. aureus strains were diluted 1:200 in fresh TSB and grown to an optical density of OD600nm 0.3. […] Vancomycin and daptomycin at 1× and 4× MIC were also included as control antibiotics. Cells were then normalized to have 10 mL of OD600nm 0.6, pelleted at 4000 rpm, and resuspended in 300 μL of PBS containing 200 μg/mL lysostaphin. This suspension was then incubated at 37 °C for 45 min to allow digestion of the cell wall to occur. One hundred microlitres of 4× SDS sample buffer were then added, and the mixture was boiled at 95 °C for 20 min. The insoluble material was then removed by pelleting at 16,000 rpm for 10 min. The supernatant containing LTA was then subjected to SDS-PAGE on a 4–20% Tris-glycine gel (Bio-Rad). The gel was transferred onto a PVDF membrane using a Trans-Blot Turbo Transfer System (Bio-Rad). The membrane was blocked overnight in TBST containing 5% semi-skimmed milk before being incubated with a mouse anti-LTA antibody (Hycult; HM2048; 1:2000 dilution) followed by a goat antimouse-HRP secondary antibody (Proteintech; SA00001; 1:2000 dilution) before being visualized using an Amersham-ECL kit (Cytiva).

[3] = test system: HL-60 cell line; conditions: antibiotics used in the training set, Table S2; cited from earlier work

Row | Compound | impact on growth [1] | LTA signal by Western blot [2] | Cell health index (CHI) [3]
1 | NC(N)=NCCC[C@H](NC(=O)[C@@H](N)Cc1ccccc1)C(=O)Nc1ccc2ccccc2c1 [PAβN, Phenylalanine-arginine β-naphthylamide] (H-Phe-Arg-βNA) | very limited impact on growth | – | –
2 | CCCCCCCCCC(=O)N[C@@H](Cc1c[nH]c2ccccc12)C(=O)N[C@H](CC(N)=O)C(=O)N[C@@H](CC(=O)O)C(=O)N[C@@H]1C(=O)NCC(=O)N[C@@H](CCCN)C(=O)N[C@@H](CC(=O)O)C(=O)N[C@H](C)C(=O)N[C@@H](CC(=O)O)C(=O)NCC(=O)N[C@H](CO)C(=O)N[C@@H]([C@H](C)CC(=O)O)C(=O)N[C@@H](CC(=O)c2ccccc2N)C(=O)O[C@@H]1C [daptomycin] | – | No reduction in LTA | –
3 | Cc1c(N)cccc1Cn1ccc(OCCc2cccs2)cc1=O [nilofabicin] | – | substantial decrease in LTA production | –
4 | Oc1cc(Cl)ccc1Oc1ccc(Cl)cc1Cl [triclosan] | – | substantial decrease in LTA production | –
5 | CN[C@H](CC(C)C)C(=O)N[C@H]1C(=O)N[C@@H](CC(N)=O)C(=O)N[C@H]2C(=O)N[C@H]3C(=O)N[C@H](C(=O)N[C@H](C(=O)O)c4cc(O)cc(O)c4-c4cc3ccc4O)[C@H](O)c3ccc(c(Cl)c3)Oc3cc2cc(c3O[C@@H]2O[C@H](CO)[C@@H](O)[C@H](O)[C@H]2O[C@H]2C[C@](C)(N)[C@H](O)[C@H](C)O2)Oc2ccc(cc2Cl)[C@H]1O [vancomycin] | – | No reduction in LTA | 0.16
